Literature values in patent publication EP0238198A2, “Method of modifying the lipid structure function and expression of cell membranes and pharmaceutical compositions for use therein” (Habib, Nagy Adly, priority 1986, dated 1987).

Test system: hepatoma cell lines
Conditions: in vitro; cited from earlier work

For CCCCCCCCC1=C(CCCCCCCC(=O)O)C1 [sterculic acid], which growth inhibition is on record?
Its growth inhibition is “growth inhibition”.

And the saturation index?
Its saturation index is “increase in their saturation index”.
